According to patent US20100056507A1, “PHENYL DERIVATIVES AND THEIR USE AS A MEDICAMENT” (IPSEN PHARMA S.A.S., priority 2006, published 2010):
Read-outs that look alike come from different tables or passages of the source.

Target: T1, human CB2 receptors (Homo sapiens, UniProt P34972)
T1 construct: expressed in transfected cells; membranes used
Test: Affinity for the human CB2 cannabinoid receptors: inhibition of [3H]-CP55940 binding to transfected CHO-K1 cell membranes
Settings: [3H]-CP55940 1 nM, CHO-K1 membranes expressing human CB2, Cheng-Prusoff correction
Experimental: The affinity of the compounds of the invention for the human CB2 receptors is determined by measuring the inhibition of the binding of [^3H]-CP55940 to transfected CHO-K1 cell membrane preparations.
The cells are collected with 0.5 mM of EDTA and centrifuged at 500 g for 5 minutes at 4° C. The pellet is re-suspended in phosphate buffered saline medium (PBS) and centrifuged at 500 g for 5 minutes at 4° C. The pellet is re-suspended in a Tris 50 mM buffer medium at pH 7.4 and centrifuged at 500 g for 5 minutes at 4° C. The cells are lysed by sonication and centrifuged at 39,000 g for 10 minutes at 4° C. The pellet is re-suspended in the Tris 50 mM buffer medium at pH 7.4 and centrifuged at 50,000 g for 10 minutes at 4° C. The membranes obtained in this last pellet are stored at −80° C.
Measurement of the competitive inhibition of the binding of the [^3H]-CP55940 to the CB2 receptors is carried out in duplicate using 96-well polypropylene plates. The cell membranes (10 μg of proteins/well) are incubated with the [^3H]-CP55940 (1 nM) for 60 minutes at 25° C. in a Tris-HCl 50 mM buffer medium, pH 7.4, comprising 0.1% bovine serum albumin (BSA), 5 mM of MgCl2, and 50 μg/ml of bacitracin.
The filters are washed with Tris-HCl 50 mM buffer, pH 7.4 at 0-4° C. and the radioactivity present is determined using a counter (Packard Top Count).
The specific binding is obtained by subtracting the non-specific binding (determined in the presence of 0.1 μM of WIN55212-2 from the total binding). The data are analyzed by computer-assisted non-linear regression (MDL). For each test, a Cheng-Prusoff correction is made in order to convert the IC50 to the inhibition constant, Ki.
where [L] is the concentration of the radioligand used in the test and Kd is the radioligand equilibrium disassociation constant.

T1 sequence (P34972 whole entry): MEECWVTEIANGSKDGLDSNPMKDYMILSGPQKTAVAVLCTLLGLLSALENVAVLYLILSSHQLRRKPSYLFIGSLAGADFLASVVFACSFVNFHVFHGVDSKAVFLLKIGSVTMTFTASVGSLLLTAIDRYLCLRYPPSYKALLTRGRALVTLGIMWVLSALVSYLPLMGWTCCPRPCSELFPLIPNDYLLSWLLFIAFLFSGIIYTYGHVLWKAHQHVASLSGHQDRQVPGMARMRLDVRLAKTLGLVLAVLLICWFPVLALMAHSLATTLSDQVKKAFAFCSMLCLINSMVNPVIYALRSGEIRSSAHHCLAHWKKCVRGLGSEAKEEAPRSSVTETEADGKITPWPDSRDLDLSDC

Ki (read-out: Ki < 0.5 μM)	Ki (read-out: Ki < 5 μM)	Compound
< 0.5 µM	< 5 µM	CCCNC(=O)Nc1ccc(CCc2nnc(-c3cc(C(C)(C)C)cc(C(C)(C)C)c3)s2)cc1 [Example 48, N-(4-{2-[5-(3,5-di-tert-butylphenyl)-1,3,4-thiadiazol-2-yl]ethyl}phenyl)-N′-propylurea]
< 0.5 µM	< 5 µM	Cc1cc2c(cc1C(=O)OCCc1ccc(NC(=O)C3CCC3)cc1)C(C)(C)CCC2(C)C [Example 49]
< 0.5 µM	< 5 µM	CC1(C)CCNc2ccc(C(=O)OCCc3ccc(NC(=O)C4CCC4)cc3)cc21 [Example 50]
< 0.5 µM	< 5 µM	CC(=O)Nc1ccc(CCOC(=O)c2ccc3c(c2)C(C)(C)CCC3(C)C)cc1 [Example 54]
< 0.5 µM	< 5 µM	CCC(=O)Nc1ccc(CCOC(=O)c2ccc3c(c2)C(C)(C)CCC3(C)C)cc1 [Example 55]
< 0.5 µM	< 5 µM	CC(C)C(=O)Nc1ccc(CCOC(=O)c2ccc3c(c2)C(C)(C)CCC3(C)C)cc1 [Example 56]
< 0.5 µM	< 5 µM	CC(C)(C)C(=O)Nc1ccc(CCOC(=O)c2ccc3c(c2)C(C)(C)CCC3(C)C)cc1 [Example 57]
< 0.5 µM	< 5 µM	CC(C)CC(=O)Nc1ccc(CCOC(=O)c2ccc3c(c2)C(C)(C)CCC3(C)C)cc1 [Example 58]
< 0.5 µM	< 5 µM	CC(C)(C)CC(=O)Nc1ccc(CCOC(=O)c2ccc3c(c2)C(C)(C)CCC3(C)C)cc1 [Example 59]
< 0.5 µM	< 5 µM	CCCCC(=O)Nc1ccc(CCOC(=O)c2ccc3c(c2)C(C)(C)CCC3(C)C)cc1 [Example 60]
< 0.5 µM	< 5 µM	C=CC(=O)Nc1ccc(CCOC(=O)c2ccc3c(c2)C(C)(C)CCC3(C)C)cc1 [Example 61]
< 0.5 µM	< 5 µM	C=CCCC(=O)Nc1ccc(CCOC(=O)c2ccc3c(c2)C(C)(C)CCC3(C)C)cc1 [Example 62]
< 0.5 µM	< 5 µM	CC1(C)CCC(C)(C)c2cc(C(=O)OCCc3ccc(NC(=O)C4CC4)cc3)ccc21 [Example 63]
< 0.5 µM	< 5 µM	CC1(C)CCC(C)(C)c2cc(C(=O)OCCc3ccc(NC(=O)C4CCCC4)cc3)ccc21 [Example 64]
< 0.5 µM	< 5 µM	CC1(C)CCC(C)(C)c2cc(C(=O)OCCc3ccc(NC(=O)C4CCCCC4)cc3)ccc21 [Example 65]
< 0.5 µM	< 5 µM	CC1(C)CCC(C)(C)c2cc(C(=O)OCCc3ccc(NC(=O)CC4CCCC4)cc3)ccc21 [Example 66]
< 0.5 µM	< 5 µM	CC1(C)CCC(C)(C)c2cc(C(=O)OCCc3ccc(NC(=O)Cc4ccccc4)cc3)ccc21 [Example 67]
< 0.5 µM	< 5 µM	CC1(C)CCC(C)(C)c2cc(C(=O)OCCc3ccc(NC(=O)Cc4cccs4)cc3)ccc21 [Example 68]
< 0.5 µM	< 5 µM	CC1(C)CCC(C)(C)c2cc(C(=O)OCCc3ccc(NS(C)(=O)=O)cc3)ccc21 [Example 69, 2-{4-[(methylsulphonyl)amino]phenyl}ethyl 5,5,8,8-tetramethyl-5,6,7,8-tetrahydronaphthalene-2-carboxylate]
< 0.5 µM	< 5 µM	CCS(=O)(=O)Nc1ccc(CCOC(=O)c2ccc3c(c2)C(C)(C)CCC3(C)C)cc1 [Example 70]
< 0.5 µM	< 5 µM	CCCS(=O)(=O)Nc1ccc(CCOC(=O)c2ccc3c(c2)C(C)(C)CCC3(C)C)cc1 [Example 71]

Ki (read-out: Ki < 0.5 μM)	Ki (read-out: Ki < 5 μM)	Compound
< 0.5 µM	< 5 µM	CC1(C)CCC(C)(C)c2cc(C(=O)OCCc3ccc(NS(=O)(=O)C4CC4)cc3)ccc21 [Example 72]
< 0.5 µM	< 5 µM	CC(C)NC(=O)Nc1ccc(CCOC(=O)c2ccc3c(c2)C(C)(C)CCC3(C)C)cc1 [Example 73]
< 0.5 µM	< 5 µM	CC(C)(C)NC(=O)Nc1ccc(CCOC(=O)c2ccc3c(c2)C(C)(C)CCC3(C)C)cc1 [Example 74]
< 0.5 µM	< 5 µM	CC1(C)CCC(C)(C)c2cc(C(=O)OCCc3ccc(NC(=O)NCc4ccco4)cc3)ccc21 [Example 75]
< 0.5 µM	< 5 µM	CCNC(=S)Nc1ccc(CCOC(=O)c2ccc3c(c2)C(C)(C)CCC3(C)C)cc1 [Example 76, 2-(4-{[(ethylamino)carbonothioyl]amino}phenyl)ethyl 5,5,8,8-tetramethyl-5,6,7,8-tetrahydronaphthalene-2-carboxylate]
< 0.5 µM	< 5 µM	CCCNC(=S)Nc1ccc(CCOC(=O)c2ccc3c(c2)C(C)(C)CCC3(C)C)cc1 [Example 77]
< 0.5 µM	< 5 µM	C=CCNC(=S)Nc1ccc(CCOC(=O)c2ccc3c(c2)C(C)(C)CCC3(C)C)cc1 [Example 78]
< 0.5 µM	< 5 µM	COCCNC(=S)Nc1ccc(CCOC(=O)c2ccc3c(c2)C(C)(C)CCC3(C)C)cc1 [Example 79]
< 0.5 µM	< 5 µM	CC1(C)CCC(C)(C)c2cc(C(=O)OCCc3ccc(NC(=S)NCc4ccco4)cc3)ccc21 [Example 80]
< 0.5 µM	< 5 µM	CCNC(=O)Nc1ccc(CCOC(=O)c2ccc3c(c2)C(C)(C)CCC3(C)C)cc1 [Example 81]
< 0.5 µM	< 5 µM	CCC(C)NC(=O)Nc1ccc(CCOC(=O)c2ccc3c(c2)C(C)(C)CCC3(C)C)cc1 (stereo not drawn) [Example 82]
< 0.5 µM	< 5 µM	CCCCNC(=O)Nc1ccc(CCOC(=O)c2ccc3c(c2)C(C)(C)CCC3(C)C)cc1 [Example 83]
< 0.5 µM	< 5 µM	CC1(C)CCC(C)(C)c2cc(C(=O)OCCc3ccc(NC(=O)NCc4ccccc4)cc3)ccc21 [Example 84]
< 0.5 µM	< 5 µM	COCC(=O)Nc1ccc(CCOC(=O)c2ccc3c(c2)C(C)(C)CCC3(C)C)cc1 [Example 85]
< 0.5 µM	< 5 µM	COCCC(=O)Nc1ccc(CCOC(=O)c2ccc3c(c2)C(C)(C)CCC3(C)C)cc1 [Example 86]
< 0.5 µM	< 5 µM	CC1(C(=O)Nc2ccc(CCOC(=O)c3ccc4c(c3)C(C)(C)CCC4(C)C)cc2)CC1 [Example 87]
< 0.5 µM	< 5 µM	CC1CC1C(=O)Nc1ccc(CCOC(=O)c2ccc3c(c2)C(C)(C)CCC3(C)C)cc1 (stereo not drawn) [Example 88]
< 0.5 µM	< 5 µM	CC1(C)CCC(C)(C)c2cc(C(=O)OCCc3ccc(NC(=O)C4CC4(C)C)cc3)ccc21 (stereo not drawn) [Example 89]
< 0.5 µM	< 5 µM	CC1(C)CCC(C)(C)c2cc(C(=O)OCCc3ccc(NC(=O)C4CC45CCC5)cc3)ccc21 (stereo not drawn) [Example 90]
< 0.5 µM	< 5 µM	CC1(C)CCC(C)(C)c2cc(C(=O)OCCc3ccc(NC(=O)CC4CC4)cc3)ccc21 [Example 91]
< 0.5 µM	< 5 µM	CC1(C)CCC(C)(C)c2cc(C(=O)OCCc3ccc(NC(=O)C4CCOC4)cc3)ccc21 (stereo not drawn) [Example 92]

Compound	Ki (read-out: Ki < 0.5 μM)	Ki (read-out: Ki < 5 μM)
CC1(C)CCC(C)(C)c2cc(-c3nnc(CCc4ccc(NC(=O)C5CCC5)cc4)s3)ccc21 [Example 51]	< 0.5 µM	< 5 µM
C=CCNC(=O)Nc1ccc(CCc2nnc(-c3ccc4c(c3)C(C)(C)CCC4(C)C)s2)cc1 [Example 52]	< 0.5 µM	< 5 µM
CCCNC(=O)Nc1ccc(CCc2nnc(-c3ccc4c(c3)C(C)(C)CCC4(C)C)s2)cc1 [Example 53]	< 0.5 µM	< 5 µM
